Assay results published in patent publication US8273553B2, “Production of growth hormone in serum-free cell culture medium for mammalian cells” (Ares Trading S.A., priority 2004, dated 2012).
Where two headings read alike, the source gives them in different places. One block for each molecule: values may come before it.

Key:
[1] = system: hGH expressing C127 cells; assay: rhGH productivity of hGH expressing C127 cells in roller bottles, DMEM supplemented with trace elements (Example 1); type: cell-based, murine; settings: for average productivity increase compared to control: 10 μM continuously added to DMEM, production phase 14 days; for productivity increase at the assayed concentration (in words): 10 μM in DMEM; for % INCREASE OF PRODUCTIVITY: single ion in DMEM at growth medium concentration: Zn 1.50300, Cu 0.02560, Se 0.11400, Co 0.00840 μM; for productivity increase, amino acid added together with the metals: Zn 0.5 μM, Cu 0.02 μM, Ferric Citrate 4.8 μM plus Gln 4.8 mM or Cys 0.29 mM
Method: The addition of the different supplements assayed (metal solutions etc.) in different experiments was carried out directly on fresh culture medium.
Genetically modified C127 murine cells (ATCC CRL 1616) were used for the expression of the recombinant human growth hormone (rhGH). The vector is based on BPV69T comprising the pBR322 multiple cloning site and comprising 1.6 kb of the rhGH minigene under the control of mouse metallothionein-1 (MT-1) promoter. Cultures derived from one Working Cell Bank obtained from different rhGH production batches were used in the experiments.
Cell cultures were kept incubated at 36° C.±0.5° C. and 0.4 rpm in 2125 cm^2 roller bottles containing 375 mL±15 mL of culture medium or in 1700 cm cm^2 roller bottles containing 300 mL of culture medium.
Culture medium used for the rhGH production phase was DMEM with 4.5 g/L glucose buffered with sodium bicarbonate (3.7 g/L).
Measurement of rhGH in the culture medium was carried out daily by reverse-phase HPLC titration:
Chromatography conditions are: • Elution by gradient: starting with a mixture phase A/phase B 60/40 ending at phase A/phase B 20/80. Gradient complete in 5 minutes (slightly variable depending on instrumentation in use) • Injection volume 50 μliters • Detection: UV absorbance at 215 nm. • P Calibration curve: r-hGH standard at 10, 50, 100, 120 and 150 μg/ml
The r-hGH concentration of a sample is determined by comparison with standard r-hGH concentrations.
Productivity is expressed as mg of rhGH per roller bottle. Raw data are rhGH concentration in the harvest (as measured by HPLC) and total number of roller bottles harvested. Typically a roller bottle during harvest phase contains around 10^9 cells.

[2] = system: r-hGH producing cells of working cell bank 15 (WCB15); assay: r-hGH productivity in six-well plates (P6 system), DMEM with additions (Example 2); type: cell-based; settings: for average productivity, % of control: duplicate; for response μg/well/hrvst / response as % “−1−1−1”: Cr 2.5 nM, Ni 1 nM in DMEM, average of 14 harvests; for response as % “−1−1−1”: relative to no addition; for % increase of hGH productivity: 6-well system
Method: The experiments were carried out using the working cell bank 15 (WCB15), which is now in current use in normal production.
Scale-down screening experiments were carried out in six-well plates COSTAR P6 of treated CELLBIND polystyrene (CORNING catalogue No. 3335) supplied with 5 mL of culture medium per well. In this case P6 plates were seeded with cells taken from the subculture 3 (standard manufacturing process) to an approximate density of 5×10^5 viable cells/well and then incubated at 37° C., within controlled atmosphere of CO2 at 5%, with standard growth medium or under 13% CO2 when changing to DMEM production medium modified as per the specific experimental plan.
(§1) Measurement of r-hGH in the culture medium was carried out daily by the currently approved reverse-phase HPLC titration.
In other experiments, metal trace elements were added to the DMEM in three concentrations and tested for effects on r-hGH productivity in 6-well plates. Each concentration was tested in duplicate and the average value was calculated. In all cases the concerned salt was prepared as 1000× stock solution from which the corresponding aliquots were taken and added to the medium.

[3] = system: r-hGH producing cells of working cell bank 15 (WCB15); type: cell-based; settings: for Product. up to H14 / Product. up to H25: relative to control
Method: According to the approved work instructions, cell cultures were kept incubated at 36° C.±0.5° C. and 0.4 rpm in 1700 cm^2 roller bottles containing 400 mL±20 mL of culture medium.
as §1

[4] = system: cell monolayer of rhGH-producing cultures; assay: peeling-off: detachment of the cell monolayer from the roller bottles; settings: roller bottles with CDX, second part of harvest period
[5] = pH in a range of 6.5 to 8.5; cited from earlier work

Molecule: O.O.[Ba+2].[Cl-].[Cl-] [Ba, Barium Chloride (BaCl2.2H2O)]
average productivity increase compared to control [1]: 1.1% | productivity increase at the assayed concentration (in words) [1]: Neither Barium nor Chromium showed productivity increase | average productivity, % of control ([2]; 1 nM in DMEM): 103.1% | average productivity, % of control ([2]; 10 nM in DMEM): 101.9% | average productivity, % of control ([2]; 100 nM in DMEM): 98.9%

Molecule: O.O.O.O.O.O.O.O.O=S(=O)([O-])[O-].O=S(=O)([O-])[O-].O=S(=O)([O-])[O-].[Cd+2].[Cd+2].[Cd+2] [Cd, Cadmium Sulphate (CdSO4.8/3H2O)]
average productivity, % of control ([2]; 1 nM in DMEM): 100.8% | average productivity, % of control ([2]; 10 nM in DMEM): 103.6% | increase of productivity ([2]; 100 nM): 20% | average productivity, % of control ([2]; 100 nM in DMEM): 120.6% | increase in r-hGH productivity over the control ([3]; Cd 100 nM, roller bottles, two independent experiments): 12-15%

Molecule: O.O.O.O.O.O.[Cl-].[Cl-].[Co+2] [Co, Cobalt Chloride (CoCl2.6H2O)]
average productivity increase compared to control [1]: 32.4% | rhGH productivity increase compared to control, continued induction ([1]; cobalt continuously added (10 μM)): 32.5% | rhGH productivity increase compared to control, intermittent induction ([1]; cobalt intermittently added (20 μM CoCl2.6H2O)): 9% | % INCREASE OF PRODUCTIVITY [1]: −3.20% | statistical analysis of effect on productivity (in words) ([2]; 2^3 factorial design, Co 5 mcrM): significant effect on productivity | response μg/well/hrvst ([2]; Co 5 mcrM): 272.1 μg/well/hrvst | response as % “−1−1−1” ([2]; Co 5 mcrM): 107.1% | Product. up to H14 ([3]; Co 1 mcrM added to DMEM): 107% | Product. up to H25 ([3]; Co 1 mcrM added to DMEM): 102% | Product. up to H14 ([3]; Co 2 mcrM added to DMEM): 110% | Product. up to H25 ([3]; Co 2 mcrM added to DMEM): 102% | Product. up to H14 ([3]; Co 5 mcrM added to DMEM): 113% | Product. up to H25 ([3]; Co 5 mcrM added to DMEM): 101% | Product. up to H14 ([3]; Co 10 mcrM added to DMEM): 117% | Product. up to H25 ([3]; Co 10 mcrM added to DMEM): 104%

Molecule: O.O.O.O.O.O.O.O.O.O.O.O.O=S(=O)([O-])[O-].O=S(=O)([O-])[O-].[Cr+3].[K+] [Cr, Chromium Potassium Sulfate (K[Cr(SO6H4)2(H2O)2].6H2O)]
productivity increase at the assayed concentration (in words) [1]: Neither Barium nor Chromium showed productivity increase | average productivity, % of control ([2]; 1 nM in DMEM): 102.0% | average productivity, % of control ([2]; 10 nM in DMEM): 102.8% | average productivity, % of control ([2]; 100 nM in DMEM): 97.8% | response μg/well/hrvst ([2]; Co 5 mcrM): 253.6 μg/well/hrvst | response as % “−1−1−1” ([2]; Co 5 mcrM): 99.8%

Molecule: O.O.O.O.O.O=S(=O)([O-])[O-].[Cu+2] [Cu, Copper Sulfate (CuSO4.5H2O)]
increase in productivity ([1]; Copper 0.02 μM in DMEM): 32.1%±9.4% | optimal supplementation concentration in DMEM ([1]; Zinc 0.5 μM and Ferric Citrate 4.8 μM constant): 25.6 nM | % INCREASE OF PRODUCTIVITY [1]: 37.50%

Molecule: [Mn] [Mn]
average productivity, % of control ([2]; 1 nM in DMEM): 101.3% | average productivity, % of control ([2]; 10 nM in DMEM): 103.8% | average productivity, % of control ([2]; 100 nM in DMEM): 101.8%

Molecule: O.O.O.O.O.O.O=[N+]([O-])[O-].O=[N+]([O-])[O-].[Ni+2] [Ni, Nickel Nitrate (Ni(NO3)2.6H2O)]
average productivity, % of control ([2]; 1 nM in DMEM): 103.1% | average productivity, % of control ([2]; 10 nM in DMEM): 102.1% | average productivity, % of control ([2]; 100 nM in DMEM): 98.6% | response μg/well/hrvst ([2]; Co 5 mcrM): 257.0 μg/well/hrvst | response as % “−1−1−1” ([2]; Co 5 mcrM): 101.2%

Molecule: O.O.O.O.O.O=[Se]([O-])[O-].[Na+].[Na+] [Se, Sodium Selenite (Na2SeO3.5H2O)]
% INCREASE OF PRODUCTIVITY [1]: −3.10% | average productivity, % of control ([2]; 1 nM in DMEM): 101.5% | average productivity, % of control ([2]; 10 nM in DMEM): 102.4% | average productivity, % of control ([2]; 500 nM in DMEM): 101.4%

Molecule: [Sn] [Sn]
average productivity, % of control ([2]; 1 nM in DMEM): 101.8% | average productivity, % of control ([2]; 10 nM in DMEM): 97.7% | average productivity, % of control ([2]; 100 nM in DMEM): 96.5% | effect of higher concentrations on productivity (in words) ([2]; highest tested concentrations): higher concentrations seem to reduce productivity

Molecule: O.O.O.O.O.O.O.O=S(=O)([O-])[O-].[Zn+2] [Zn, Zinc sulfate (ZnSO4.7H2O)]
concentration at which maximum productivity level (plateau) is observed ([1]; Ferric Citrate 4.8 μM and Copper 0.025 μM constant): above 200 nM | increase in productivity ([1]; Zinc 0.5 μM in DMEM): 16.8%±1.6% | increase in productivity ([1]; Zinc 1.5 μM in DMEM): 10.3%±5.0% | productivity at plateau over the average control value ([1]; Zinc above 200 nM, Ferric Citrate 4.8 μM, Copper 0.025 μM): about 60% | % INCREASE OF PRODUCTIVITY [1]: 12.10%

Molecule: N[C@@H](CSSC[C@H](N)C(=O)O)C(=O)O [cystine, L-cystine]
productivity increase, amino acid added together with the metals [1]: 69.9%

Molecule: NC(=O)CC[C@H](N)C(=O)O [glutamine, L-glutamine]
productivity increase, amino acid added together with the metals [1]: 81.1%

peeling off in the roller bottles (visual observation) [4]: much less peeling off
Molecule: Methyl-β-Cyclodextrin [CDX]
% increase of hGH productivity ([2]; CDX 25 mg/L, 0.02 mM): 2% | % increase of hGH productivity ([2]; CDX 50 mg/L, 0.04 mM): 4% | % increase of hGH productivity ([2]; CDX 80 mg/L, 0.07 mM): 5% | % increase of hGH productivity ([2]; CDX 116 mg/L, 0.1 mM): 7% | increase in productivity ([2]; CDX only (FIG. 19)): 7% | productivity relative to the control ([3]; CDX 116 mg/L (0.1 mM), Cadmium 0.1 micromolar, Cobalt 1 micromolar): 104%

Molecule: hGH: single polypeptide chain of 191 amino acids having two disulfide bonds
solubility in aqueous buffers [5]: > 10 µg/mL
